Experimental data taken from US8822217B2, “Method for cultivating tendon cells from pluripotent cells of mesenchymal origin” (Angewandte Biotechnologie GmbH, priority 2007, dated 2014).

Columns and labels:
[1] = test system: pluripotent cells of mesenchymal origin; test: Cell morphology of the cell culture after treatment; assay type: cell-based, human
Protocol: In order to isolate pluripotent cells of mesenchymal origin, small pieces of Substantia spongiosa, biopsied from the human wing of ilium were digested at 37° C. in 2 ml of DMEM (Dulbecco's modified eagles medium with 4.5 g/l of glucose) with 2.5 mg/ml collagenase for 3 h. The cell pellet obtained from the digested pieces by multiple centrifugation was inoculated in a density of 200000 cells/cm^2 and was incubated for 24 h in DMEM with 10% foetal calf serum (FCS) and specifically at 37° C., 5% C02 and 100% humidity. One preparation gives a growth area of 60 to 180 cm^2. The culture medium was changed twice a week. Before the cells are confluent after six days, they are passaged in the usual way. The first passage is cultivated further under the standard conditions described until the logarithmic growth phase is reached after three days. The culture medium is then exchanged for a medium which was adjusted to an osmolarity of 360 mosmol/l with the aid of saccharose and, in addition to DMEM mixed with 10% FCS, contains 50 μg/ml of ascorbic acid-2-phosphate. The cells are incubated for four days in this culture medium. […] In addition, the secretion of type I collagen and its cross-linking increases. […]

[2] = test system: pluripotent cells of mesenchymal origin; test: Western Blot analysis for the collagen production; assay type: cell-based, human; settings: for secretion of type I collagen (double band at 130 kD): vs untreated sample a; for cross-linking of the collagen (area of 400 kD): compared to sample b
Protocol: In order to isolate pluripotent cells of mesenchymal origin, small pieces of Substantia spongiosa, biopsied from the human wing of ilium were digested at 37° C. in 2 ml of DMEM (Dulbecco's modified eagles medium with 4.5 g/l of glucose) with 2.5 mg/ml collagenase for 3 h. The cell pellet obtained from the digested pieces by multiple centrifugation was inoculated in a density of 200000 cells/cm^2 and was incubated for 24 h in DMEM with 10% foetal calf serum (FCS) and specifically at 37° C., 5% C02 and 100% humidity. One preparation gives a growth area of 60 to 180 cm^2. The culture medium was changed twice a week. Before the cells are confluent after six days, they are passaged in the usual way. The first passage is cultivated further under the standard conditions described until the logarithmic growth phase is reached after three days. The culture medium is then exchanged for a medium which was adjusted to an osmolarity of 360 mosmol/l with the aid of saccharose and, in addition to DMEM mixed with 10% FCS, contains 50 μg/ml of ascorbic acid-2-phosphate. The cells are incubated for four days in this culture medium. […] In addition, the secretion of type I collagen and its cross-linking increases. Following stimulation of the cells to enhanced collagen secretion under hyperosmolar conditions, they are cultivated in a standard culture medium for a further 12 h in order to then be investigated.

[3] = sample c: treatment under hyperosmolar conditions
[4] = sample c: treatment under hyperosmolar conditions, listed as ascorbic-2-phosphate

In the case of `O=C1O[C@H]([C@@H](O)CO)C(O)=C1OP(=O)(O)O` [ascorbic acid-2-phosphate], the “change in the cellular phenotype” value ([1]; 50 μg/ml, hyperosmolar conditions (360 mosmol/l with saccharose), four days) is reported as “the cells become fibroblastic”, the “cell structure (FIG. 1 vs FIG. 2)” value ([1]; treatment with ascorbic-2-phosphate, polygonal structure before treatment) is reported as “fibroblastic structures” and the “secretion of type I collagen (double band at 130 kD)” value (“secretion of type I collagen” below) ([2]; sample b: treatment without hyperosmolar conditions) is reported as “significant increase”. For the same molecule, the “resistance to digestion with pepsin” value [2, 3] was “more resistant to digestion with pepsin”, the “cross-linking of the collagen (area of 400 kD)” value [2, 3] was “increases” and the “cross-linking of the collagen (area of 400 kD)” value [2, 4] was “enhanced cross-linking”. The “secretion of type I collagen” value [2, 3] was “increases” and the “secretion of type I collagen” value [2, 4] was “significant increase”.
